Six molecules from patent publication US20020025943A1, “Nucleoside analog compositions and uses thereof” (priority 1997, published 2002) can be followed below.

Structures are written as SMILES. Where two headings read alike, the source gives them in different places. Bounds are passed on as bounds.

Assay [1] relates to HIV-1 (RF strain). Nature of the assay: NCI AIDS antiviral screen: inhibition of HIV-1 cytopathicity in T4 lymphocytes (CEM line), XTT viability. The assay is classed as cell-based. The settings on record: for EC50: NCI screen, mean value. As for the experimental part: Three DHA-ddC (compounds 8, 9, and 10 above) and one DHA-AZT conjugate (the compound described above) were sent to the National Cancer Institute's AIDS antiviral screen to test their anti-HIV activity in vitro. The compounds were provided as solutions in ethanol. The vials containing the conjugates were sealed under argon to prevent oxygen from possibly degrading the conjugates. Instructions were provided to store the vials containing the conjugates at 4° C. and to open the vials immediately before use.
The primary screen used by the NCI for anti-HIV activity utilizes the cytopathicity of HIV-1 for human T4 lymphocytes and the inhibition of such killing by drugs that inhibit viral cytotoxicity. The experimental protocols are described by Weislow et al., (J. Natl. Cancer Inst. 81:577-586, 1989) and Bader (, whose contents are incorporated herein by reference. Briefly, the compounds are diluted first in DMSO or other appropriate solvent, then diluted 1:100 in cell culture medium before preparing serial half log10 dilutions. T4 lymphocytes (CEM line) are added, and after a brief interval HIV-1 (RF strain) is added. Appropriate controls (infected and uninfected cells without compound, and non-infected cells with the compound) are included in the plate format. The cultures are incubated at 37° C. for six days during which time the cells proliferate, the virus reproduces and kills the cells. Cell viability is measured by the ability of cells to convert a colorless tetrazolium salt (XTT) to a highly colored soluble formazan. The intensity of the color is read in a spectrophotometer using an automated system. The wells are also examined microscopically to confirm the protective activity of the compounds.

The subject of assay [2] is HIV in human T4 cells. As to the kind of experiment: Anti-HIV experiments performed at the Southern Research Institute (SRI). The assay is classed as cell-based. Particulars: for Fold Increase in Potency: SRI, Control/Expt, relative to the parent drug (AZT or ddC). An excerpt: The results of the experiments performed at SRI are shown in Table 2; the results were expressed in terms of inhibitory concentration
These in vitro data in human cells establish that conjugating ddC drugs to DHA achieves higher activity (between >5400 fold to 55 to 13 fold) against HIV in human T4 cells. In particular, conjugation of DHA to ddC drugs at the pyrimidine ring of ddC rather than the pentose ring is preferred based upon the unexpected results of the foregoing assays.

Where [3] appears, read: Human immunodeficiency virus 1, Lymphocyte.
Setting [4] is: Human immunodeficiency virus 1, SRI experiments, read-out: Inhibitory Concentration.
Where [5] appears, read: SRI experiments, read-out: Inhibitory Concentration.

With `Cc1cn([C@H]2CC(N=[N+]=[N-])[C@@H](CO)O2)c(=O)[nH]c1=O` (stereo partly drawn) [AZT, reference compound], the EC50 in assay [1] (setting [3]) worked out at 17.7 nM. Besides, in assay [2] (setting [4]), the IC50 was determined as 100 nM. Moreover, the “Fold Increase in Potency” value in assay [2] stood at 1.0 fold.

With `Nc1ccn([C@H]2CC[C@@H](CO)O2)c(=O)n1` [ddC, 2′,3′-dideoxycytidine, reference compound], in assay [1] (setting [3]), the midpoint of the response, the EC50, lay at 114 nM. The IC50 in assay [2] (Human immunodeficiency virus 1, read-out: Inhibitory Concentration) worked out at 300 nM. In addition, the “Fold Increase in Potency” value in assay [2] was found to be 1.0 fold.

The molecule `CC/C=C\C/C=C\C/C=C\C/C=C\C/C=C\C/C=C\CCC(=O)OC[C@H]1O[C@@H](n2cc(C)c(=O)[nH]c2=O)C[C@@H]1N=[N+]=[N-]` [DHA-AZT] registered an EC50 in assay [1] of 26.2 nM. The “anti-HIV activity of the conjugate relative to that of the parent drug, AZT” value in assay [1] (NCI studies) was “did not alter the anti-HIV activity”. Besides, in assay [2] (setting [5]), the IC50 is 60 nM. For the same molecule, in assay [2], the “Fold Increase in Potency” value came out at 1.7 fold. In addition, the “activity relative to AZT alone” value in assay [2] (same assays as the DHA-ddC conjugates) was “not increased”.

Turning to `CC/C=C\C/C=C\C/C=C\C/C=C\C/C=C\C/C=C\CCC(=O)Nc1ccn([C@H]2CC[C@@H](CO)O2)c(=O)n1` [DHA-ddC 8], in assay [1] (mean EC50 for ddC (moles/L) divided by EC50 of the conjugate (moles/L)), the “Fold Increase in Potency over ddC” value is more than 3807 fold. Further, the IC50 in assay [2] (setting [4]) is 6.93 nM. Also, in assay [2], the “Fold Increase in Potency” value is reported as 54.8 fold.

In the case of `CC/C=C\C/C=C\C/C=C\C/C=C\C/C=C\C/C=C\CCC(=O)Nc1ccn([C@H]2CC[C@@H](COC(=O)CC/C=C\C/C=C\C/C=C\C/C=C\C/C=C\C/C=C\CC)O2)c(=O)n1` [DHA-ddC 9], the IC50 in assay [2] (setting [4]) came to 30 nM. Also, the “Fold Increase in Potency” value in assay [2] was determined as 12.7 fold.

Regarding `CC/C=C\C/C=C\C/C=C\C/C=C\C/C=C\C/C=C\CCC(=O)OC[C@@H]1CC[C@H](n2ccc(N)nc2=O)O1` [DHA-ddC 10], the IC50 in assay [2] (setting [5]) is 10 nM. The “Fold Increase in Potency” value in assay [2] stood at 38 fold.
